“Also recorded” adds a separate entry of the source.
What was measured:
[1] = tested on: E. coli strain pBWU13.4/DK8; assay: Growth yield in limiting glucose medium in presence of bioflavonoid compounds; type: cell-based, Escherichia coli; conditions: OD595 after ~20 hours growth at 37 °C; control 100, null 45
[2] = tested on: rat brain and liver mitochondrial F1Fo ATP synthase; conditions: cited from earlier work
[3] = molecular target: E. coli ATP synthase (purified F1 or membrane bound F1Fo) (Escherichia coli, UniProt P0ABA6+P0ABB0+P0ABB4); type: biochemical; conditions: for Residual ATPase Activity (%): left over ATPase activity at maximal inhibition
[4] = tested on: E. coli enzyme mutants αR283A/Q, αE284A/Q, βS263A/Q, γT273A/Q, γQ274A/K, γT277A/Q, γE278A/Q; assay: Inhibition of polyphenol binding pocket mutants of E. coli enzyme; type: biochemical, Escherichia coli; conditions: unpublished results of the authors
[5] = tested on: E. coli ATP synthase; conditions: cited from earlier work
[6] = molecular target: E. coli ATP synthase (purified F1 or membrane bound enzyme) (Escherichia coli, UniProt P0ABA6+P0ABB0+P0ABB4); assay: Reversal of ATPase inhibition by dilution or centrifuge columns; type: biochemical; conditions: dilution to non-inhibitory concentration or twice through centrifuge columns
[7] = tested on: androgen-responsive human prostate carcinoma cells (LNCaP); conditions: concentrations of up to 50μmol/L/day; cited from earlier work
[8] = tested on: normal human prostate cells; conditions: at similar concentrations (up to 50μmol/L/day); cited from earlier work
[9] = tested on: cultured human lymphoblastoid and other mammalian cells; conditions: not in ρ° cells; cited from earlier work
[10] = purified F1 or membrane bound F1Fo
[11] = mitochondrial F1Fo ATP synthase

| SMILES | Growth yield in limiting glucose (%) [1] | Residual ATPase Activity (%) ([3]; 60 min preincubation) | Extent of inhibition of ATPase activity, in words [3, 10] | other results |
| --- | --- | --- | --- | --- |
| O=c1c(-c2ccc(O)cc2)coc2cc(O)cc(O)c12 [Genistein] | 87% |  |  |  |
| O=c1c(-c2ccc(O)cc2)coc2cc(O[C@@H]3O[C@H](CO)[C@@H](O)[C@H](O)[C@H]3O)cc(O)c12 [genistin] |  |  |  | Inhibition of ATPase activity ([2]; up to 140 μM): did not inhibit |
| COc1cc(C2Oc3cc([C@H]4Oc5cc(O)cc(O)c5C(=O)[C@@H]4O)ccc3OC2CO)ccc1O (stereo partly drawn) [Silibinin] | 47% | 0% | complete inhibition |  |
| O=c1cc(-c2ccccc2)oc2cc(O)c(O)c(O)c12 [Baicalein] | 48% | 0% | complete inhibition |  |
| C[C@@H]1O[C@@H](OC[C@H]2O[C@@H](Oc3c(-c4ccc(O)c(O)c4)oc4cc(O)cc(O)c4c3=O)[C@H](O)[C@@H](O)[C@@H]2O)[C@H](O)[C@H](O)[C@H]1O [Rutin hydrate] | 87% |  |  |  |
| O=c1c(O)c(-c2ccc(O)c(O)c2)oc2cc(O)cc(O)c12 [Quercetin] |  |  |  | Inhibition of mutant enzymes [4]: loss of inhibition; IC50 ([5]; E. coli ATP synthase): ~33 µM; Reversibility of inhibition ([5]; binds non-covalently at the polyphenol binding site): reversible; Inhibition of E. coli ATP synthase [5]: ~ 80%; IC50 [2, 11]: 55 to 65 µM |
| O=c1c(-c2ccc(O)cc2)coc2cc(O)ccc12 [Daidzein] | 96% |  | insignificant |  |
| O=c1cc(-c2ccccc2)oc2cc(O)cc(O)c12 [Chrysin] | 73% | 40% |  |  |
| O=c1cc(-c2ccc(O)c(O)c2)oc2cc(O)cc(O)c12 [Luteolin] | 87% |  | insignificant |  |
| COc1ccc(-c2cc(=O)c3c(O)cc(O[C@@H]4O[C@H](CO[C@@H]5O[C@@H](C)[C@H](O)[C@@H](O)[C@H]5O)[C@@H](O)[C@H](O)[C@H]4O)cc3o2)cc1O [Diosmin] |  |  | partial inhibition |  |
| O=c1cc(-c2ccc(O)cc2)oc2cc(O)cc(O)c12 [Apigenin] |  | 60% |  | Reversibility of inhibition [6]: reversible; IC50 [2, 11]: ~100 µM |
| Oc1cc(O)c2c(c1)O[C@H](c1ccc(O)c(O)c1)[C@H](O)C2 [(−)-Epicatechin] | 53% | 0% | complete inhibition |  |
| Oc1ccc(/C=C/c2cc(O)cc(O)c2)cc1 [resveratrol] |  |  |  | Inhibition of mutant enzymes [4]: loss of inhibition; Effect on apoptosis [7]: stimulation of apoptosis; Time to inhibition [2, 11]: 1 to 2 min; Effect on rate of cell death [8]: no effect |
| NC12CC3CC(CC(C3)C1)C2 [Amantadin, reference compound] | 51% | 0% | complete inhibition | Inhibition of ATPase activity (maximal extent) ([3]; purified F1 or membrane bound F1Fo, 60 min preincubation): ~ 100% |
| O=c1c(O)c(-c2ccc(O)cc2O)oc2cc(O)cc(O)c12 [Morin hydrate] | 46% | 0% | complete inhibition |  |
| Oc1cc(O)cc(/C=C/c2ccc(O)c(O)c2)c1 [piceatannol] |  |  |  | Inhibition of mutant enzymes [4]: loss of inhibition |
| O=c1c(O)c(-c2ccccc2)oc2cc(O)cc(O)c12 [Galangin] | 93% |  | insignificant; also recorded: no inhibition |  |
| CC(N)C12CC3CC(CC(C3)C1)C2 (stereo not drawn) [Rimantadine, reference compound] | 52% | 0% | complete inhibition |  |
| CC[C@H]1/C=C/C=C/C[C@@H](C)[C@H](O)[C@@](C)(O)C(=O)[C@@H](C)[C@H](O)[C@@H](C)C(=O)[C@@H](C)[C@H](O)[C@@H](C)/C=C/C(=O)O[C@@H]2[C@H](C)[C@H](CC1)O[C@]1(CC[C@H](C)[C@H](C[C@@H](C)O)O1)[C@H]2C [Oligomycin] |  |  |  | Time to apoptotic suicide response [9]: 12 to 18 h |
| COc1ccc([C@@H]2CC(=O)c3c(O)cc(O[C@@H]4O[C@H](CO[C@@H]5O[C@@H](C)[C@H](O)[C@@H](O)[C@H]5O)[C@@H](O)[C@H](O)[C@H]4O)cc3O2)cc1O [Hesperidin] | 76% | 40% | partial inhibition |  |

Source: paper PMC2862773 (International journal of biological macromolecules, 2010)
